Test system: plants
Assay: Test D pre-emergence, other plants of Tables D1 and D3
Type: in vivo
Details: pre-emergence, 100=total damage, 0=no damage
Procedure: A formulation containing 50 g/L of the test chemical was prepared by dissolving the active ingredient in a mixture of organic solvents and emulsifier, details of which are provided in the table. This formulation was then mixed with a small, variable amount of acetone to aid dissolution, before addition of a 0.2% v/v aqueous solution of an adjuvant, as the aqueous diluent, to form an aqueous spray solution which contains a predetermined concentration of the active ingredient.
This aqueous spray solution was then sprayed onto plants including maize and wheat that had been seed treated with a herbicide safener, after one day's cultivation (for pre-emergence) or after about 12 days' cultivation (for post-emergence). The plants were grown from seeds sown in standard soil, placed in a glasshouse under controlled conditions (at 24/18° C. or 20/16° C., day/night; 16 h light; 65% humidity). After spray application the plants were then grown in a glasshouse under the same conditions and watered twice daily. After 15 d for post-emergence and 20 DAA for pre-emergence the test was evaluated (100=total damage to plant; 0=no damage to plant).

CN1CC(c2cc(C(F)(F)F)n(C)n2)C(C(=O)Nc2ccc(F)nc2F)C1=O (racemic) [Compound 22]
damage to plant, ALOMY (rate 15, 20 DAA): 0
damage to plant, AVEFA (rate 15, 20 DAA): 0
damage to plant, BEAVA (rate 15, 20 DAA): 0
damage to plant, BROTE (rate 15, 20 DAA): 0
damage to plant, BRSNN (rate 15, 20 DAA): 0
damage to plant, CHEAL (rate 15, 20 DAA): 0
damage to plant, GALAP (rate 15, 20 DAA): 0
damage to plant, HORVW (rate 15, 20 DAA): 0
damage to plant, KCHSC (rate 15, 20 DAA): 0
damage to plant, LOLPE (rate 15, 20 DAA): 0
damage to plant, POAAN (rate 15, 20 DAA): 0
damage to plant, POLCO (rate 15, 20 DAA): 0
damage to plant, SINAR (rate 15, 20 DAA): 0
damage to plant, STEME (rate 15, 20 DAA): 0
damage to plant, VERPE (rate 15, 20 DAA): 0
damage to plant, ALOMY (rate 30, 20 DAA): 0
damage to plant, AVEFA (rate 30, 20 DAA): 0
damage to plant, BEAVA (rate 30, 20 DAA): 0
damage to plant, BROTE (rate 30, 20 DAA): 0
damage to plant, BRSNN (rate 30, 20 DAA): 0
damage to plant, CHEAL (rate 30, 20 DAA): 0
damage to plant, GALAP (rate 30, 20 DAA): 0
damage to plant, HORVW (rate 30, 20 DAA): 0
damage to plant, KCHSC (rate 30, 20 DAA): 0
damage to plant, LOLPE (rate 30, 20 DAA): 0
damage to plant, POAAN (rate 30, 20 DAA): 0
damage to plant, POLCO (rate 30, 20 DAA): 0
damage to plant, SINAR (rate 30, 20 DAA): 0
damage to plant, STEME (rate 30, 20 DAA): 0
damage to plant, VERPE (rate 30, 20 DAA): 0
damage to plant, ALOMY (rate 60, 20 DAA): 0
damage to plant, AVEFA (rate 60, 20 DAA): 0
damage to plant, BEAVA (rate 60, 20 DAA): 0
damage to plant, BROTE (rate 60, 20 DAA): 0
damage to plant, BRSNN (rate 60, 20 DAA): 0
damage to plant, CHEAL (rate 60, 20 DAA): 20
damage to plant, GALAP (rate 60, 20 DAA): 0
damage to plant, HORVW (rate 60, 20 DAA): 0
damage to plant, KCHSC (rate 60, 20 DAA): 0
damage to plant, LOLPE (rate 60, 20 DAA): 0
damage to plant, POAAN (rate 60, 20 DAA): 0
damage to plant, POLCO (rate 60, 20 DAA): 0
damage to plant, SINAR (rate 60, 20 DAA): 0
damage to plant, STEME (rate 60, 20 DAA): 10
damage to plant, VERPE (rate 60, 20 DAA): 0
damage to plant, ALOMY (rate 130, 20 DAA): 0
damage to plant, AVEFA (rate 130, 20 DAA): 0
damage to plant, BEAVA (rate 130, 20 DAA): 0
damage to plant, BROTE (rate 130, 20 DAA): 0
damage to plant, BRSNN (rate 130, 20 DAA): 0
damage to plant, CHEAL (rate 130, 20 DAA): 10
damage to plant, GALAP (rate 130, 20 DAA): 0
damage to plant, HORVW (rate 130, 20 DAA): 0
damage to plant, KCHSC (rate 130, 20 DAA): 0
damage to plant, LOLPE (rate 130, 20 DAA): 10
damage to plant, POAAN (rate 130, 20 DAA): 20
damage to plant, POLCO (rate 130, 20 DAA): 0
damage to plant, SINAR (rate 130, 20 DAA): 0
damage to plant, STEME (rate 130, 20 DAA): 10
damage to plant, VERPE (rate 130, 20 DAA): 20
damage to plant, ALOMY (rate 250, 20 DAA): 0
damage to plant, AVEFA (rate 250, 20 DAA): 0
damage to plant, BEAVA (rate 250, 20 DAA): 0
damage to plant, BROTE (rate 250, 20 DAA): 0
damage to plant, BRSNN (rate 250, 20 DAA): 0
damage to plant, CHEAL (rate 250, 20 DAA): 80
damage to plant, GALAP (rate 250, 20 DAA): 0
damage to plant, HORVW (rate 250, 20 DAA): 0
damage to plant, KCHSC (rate 250, 20 DAA): 0
damage to plant, LOLPE (rate 250, 20 DAA): 20
damage to plant, POAAN (rate 250, 20 DAA): 40
damage to plant, POLCO (rate 250, 20 DAA): 10
damage to plant, SINAR (rate 250, 20 DAA): 0
damage to plant, STEME (rate 250, 20 DAA): 30
damage to plant, VERPE (rate 250, 20 DAA): 30
damage to plant, ALOMY (rate 500, 20 DAA): 20
damage to plant, AVEFA (rate 500, 20 DAA): 0
damage to plant, BEAVA (rate 500, 20 DAA): 0
damage to plant, BROTE (rate 500, 20 DAA): 0
damage to plant, BRSNN (rate 500, 20 DAA): 0
damage to plant, CHEAL (rate 500, 20 DAA): 40
damage to plant, GALAP (rate 500, 20 DAA): 0
damage to plant, HORVW (rate 500, 20 DAA): 0
damage to plant, KCHSC (rate 500, 20 DAA): 0
damage to plant, LOLPE (rate 500, 20 DAA): 30
damage to plant, POAAN (rate 500, 20 DAA): 60
damage to plant, POLCO (rate 500, 20 DAA): 20
damage to plant, SINAR (rate 500, 20 DAA): 0
damage to plant, STEME (rate 500, 20 DAA): 40
damage to plant, VERPE (rate 500, 20 DAA): 100
